From patent US20240343699A1, “DERIVATIVES OF SUBSTITUTED MORPHOLINES AND USES THEREOF” (Supernus Pharmaceuticals, Inc., priority 2023, published 2024)
Where a name gives a salt, the structure may show the parent alone.

Columns and labels:
cognitive flexibility = assay: Operant set-shifting test against PCP; format: in vivo, male Wistar rats
Procedure: This assay serves as a model of impaired executive function associated with neuropsychiatric disorders like schizophrenia. The aim of this study was to evaluate COMPOUND C to reverse deficits observed with PCP on cognitive flexibility using the operant set-shifting test in the rat.
Substances & Formulation.
Doses were prepared by separate weighing (W/V). COMPOUND C formulations were prepared fresh on each dosing day and dosing was completed within 8 hours of formulation. Phencyclidine (PCP) hydrochloride, white powder, was dissolved in physiological saline by magnetic stirring, fresh each day of dosing.
Test System. 78 male Wistar rats were supplied for this study. • 72 rats, 8-9 weeks old, weighing 218-299 g at the beginning of the visual discrimination were submitted to the entire behavioral testing and assigned to match groups based on their performance during the second visual discrimination session. • 6 spare rats were submitted to lever pressing, side bias and visual discrimination but were discarded for the testing period (set-shift and reversal)
The experimental protocol which detects effects on behavioral flexibility follows that described by Floresco et al. (Behav. Brain Res., 190, 85-96 (2008)).
Apparatus. The apparatus consists of standard Med Associates ENV-008 Skinner boxes (30×25×30 cm) fitted with a house light, two retractable levers and a food pellet dispenser. The levers are located on either side of the food receptacle connected to the pellet dispenser. A light emitting diode stimulus light is positioned centrally above each lever and served as a stimulus for visual-cue discrimination learning.
Acquisition of lever-pressing (training). The aim of this phase was to train animals to lever-press to receive a food pellet reward.
Side bias. On the last day of training, the side bias for the rat was determined. The session was similar to the lever pressing session except that both levers were inserted into the chamber together (i.e. 90 levers presentations every 20 seconds). Again, the stimulus lights above each of the levers were not illuminated during this training session. On the first levers presentation, a food pellet was delivered after responding on either lever. Upon subsequent insertion of the levers, food was delivered only if the rat responded on the lever opposite to the one chosen initially. If the rat chose the same lever to the initial choice, no food was delivered. This continued until the rat chose the lever opposite to the one chosen initially. After choosing both levers, a new trial commenced. Thus, one trial for the side bias procedure consisted of responded on both levers. The sessions terminated after 90 levers presentations or after completion of 21 trials.
Visual-cue discrimination learning. After determining the side bias, animals were submitted to visual-cue discrimination learning.
A session began with both levers retracted and the chamber in darkness (the inter-trial state). Every 20 seconds, a trial began with illumination of one of the stimulus lights above one of the levers. 3 seconds later, the house light was illuminated, and both levers were inserted into the chamber. […] After food delivery, the house light remained on for another 4 seconds, after which the chamber returned to the inter-trial state. If the rat responded on the other lever (incorrect response), both levers retracted immediately without food delivery and the chamber reverted to the inter-trial state.

recognition memory [1] = assay: Novel object recognition, scopolamine-impairment model, 3 hr retention interval
recognition memory [2] = assay: Spontaneous novel object recognition (NOR), 48 hr retention interval; format: in vivo, male Wistar rats; details: donepezil 2.0 mg/kg i.p., 48 hr delay
immobility = assay: Tail suspension test (TST); details: imipramine 15 mg/kg IP, vs vehicle (p=0.01)
Procedure: The tail suspension test is an experimental method used in scientific research to measure a state of being helpless in rodents, especially in mice. It is based on the observation that if a mouse is subjected to short term inescapable stress then the mouse will stop struggling. Immobility is quantified by measuring the amount of time lacking whole body activity.
The immobilized time in the last 4 min of the TST, which indicated depression-like behavior, was quantified using offline video manual scoring in a blinded manner.
Animals. Adult (7 to 8 weeks) male mice (C57Bl/6, Charles River Laboratories) were used in the study. Upon arrival, animals were group-housed (5/cage) with access to food and water ad libitum. Animals were maintained on a 12/12-hour light/dark cycle in a temperature—(22±2° C.) and humidity—(approx. 50%) controlled room. Animals were numbered consecutively by tail marks. Each cage was identified by a card indicating the study number, sex, animal numbers and date of birth.
Test article formulations were prepared fresh based on weight-to-volume in the vehicle on each dosing day. […] The appearance of the formulations was clear, with no precipitations. […] A vehicle group was included for comparison.
Monitoring. A piezoelectric sensor operated by the SmartCage system was utilized and video recording was conducted for scoring. After animals acclimated to the testing room, an individual mouse's tail was placed onto the piezoelectric sensor-board and the mouse was hung upside down, which signaled the immediate start of the recording of struggle activity, and it lasted for 6 min. The mouse was then taken off and returned to the home cage. The immobilized time, indicating depression-like behavior, was quantified using manual scoring of the video recordings for the period from 120 seconds to 360 seconds during TST. The percent immobility time was calculated: (immobility time/240 seconds)*100.
The immobilized time in the last 4 min of the TST, which indicates depression-like behavior, was quantified using offline video manual scoring in a blinded manner.
Animals. Adult (8 weeks, approximately 20-25 g) male mice (C57Bl/6, Vendor: Charles River Laboratories) were used in the study. Upon arrival, animals were group-housed (5/cage) with access to food and water ad libitum. Animals were maintained on a 12/12-hour light/dark cycle in a temperature—(22±2° C.) and humidity—(35-50%) controlled room. Animals were numbered consecutively by tail ID. Each cage was identified by a colored card indicating the study number, sex, animal numbers and date of birth.
Test article formulations were prepared fresh based on weight-to-volume in the vehicle on dosing day. […] The appearance of the formulations was clear, with no precipitations.
The tail suspension test is an experimental method used in scientific research to measure a state of being helpless in rodents, especially in mice. It is based on the observation that if a mouse is subjected to short term inescapable stress then the mice will give up struggling. “Immobility” is quantified by measuring the amount of time during which the animal has no whole-body activity.
Tail Suspension Test (TST). A piezoelectric sensor operated by the SmartCage system was utilized and video recording was conducted for scoring. Once animals were acclimated to the testing room, the TST was initiated by placing the tail of the test mouse onto the piezoelectric sensor-board and hanging the mouse upside down. The recording period was initiated once the mouse was upside down and lasted for 6 min. After the recording period, the mouse was removed from the recording device and returned to its home cage.

rat red blood cells = assay: Hemolysis in rat blood; format: cell-based; details: rat blood, 60 min exposure; read-out: EC50 (% RBC lysis)
Procedure: Stability of Test Articles at Different pH Values. 10 mM stock solutions of COMPOUND A were prepared in DMSO. From this stock solution, a single concentration in a 10 μL aliquot was added to three fluid matrices: SGF at pH 2.0 (gastric), SIF at pH 6.0 (upper intestine), and PBS at 7.4 (systemic). The final volume was 1 mL (0.1 mM). The preparations were then incubated at 37° C. and samples were collected at 0, 15, 30, 60, and 120 min for analysis of parent material by LC/MS/MS. The collected sample was quenched in acetonitrile/0.1% formic acid mixture. Red Blood Cell (RBC): Human and rat blood were centrifuged to separate out red blood cells at […] for 15 min. The upper plasma level was aspirated with a micropipette and placed in a bleach solution for disposal. The RBC pellet was resuspended in sterile isotonic saline. The pellet was gently resuspended by rocking the tube. The sample was then centrifuged again to collect the RBC pellet and then resuspended and washed one more time following the same procedure. A total of three was done. Following the last wash and centrifugation, the RBCs were resuspended with PBS; and mixed by inversion. Aliquots of the resuspended and washed RBCs were then placed into 4 reaction tubes. These tubes were centrifuged to collect the RBCs. The fluid level was marked on each tube, then the supernatant was aspirated off and the cells resuspended with room temperature PBS pH 7.4 to the original mark. An aliquot of the RBC suspension was added to four sterile tubes containing PBS pH 7.4 at room temperature.
Stability in Human and Rat Red Blood cells and Hemolysis. […] After centrifugation, 70 μL of supernatant (without disturbing the pellet) was transferred to a clean and clear polystyrene flat bottomed 96-well plate and the absorbance of the sample at a single wavelength was measured using a Bio Tech Synergy Hl Plate Reader at a wavelength of 410 nm. […] Stability was measured by measuring loss of parent compound using LC/MS/MS.

[3] = PK of S-viloxazine after single PO administration; details: for Tmax: 40 mg/kg
Procedure: Study Design. […] Food was returned 2 hours post-dose.
Test Article Formulation.

anxiety-like behavior = assay: Elevated plus maze (EPM); format: in vivo, male Wistar rats; details: for Closed arm entries / Closed arm returns / Head dips in open arms / Stretch-attend postures / Time in closed arms / Time in open arms / Total arm entries: mean; for % Time in open arms / Open Arm Entries / Total distance travelled: mean ± S.E.M.
[4] = PCP 2 mg/kg s.c., first reversal session
[5] = PCP 2 mg/kg s.c., first set-shift session
[6] = PCP 2 mg/kg s.c., first set-shift to response discrimination session
[7] = S(−)-VLX in plasma, 40 mg/kg PO, fasted rats
[8] = 15 mg/kg PO 20 min prior to EPM
[9] = 30 mg/kg PO 20 min prior to EPM
[10] = 60 mg/kg PO 20 min prior to EPM

SMILES: c1ccc(C2(N3CCCCC3)CCCCC2)cc1 [PCP, Phencyclidine (PCP) hydrochloride]
- number of errors vs saline controls (cognitive flexibility; [4]): +66%
- number of trials to reach the criterion vs saline controls (cognitive flexibility; [4]): +35%
- perseverative errors (average) (cognitive flexibility; [5]): 35.8
- total errors (average) (cognitive flexibility; [5]): 37.8
- number of errors vs saline controls (cognitive flexibility; [6]): +47%
- number of trials to reach the criterion vs saline controls (cognitive flexibility; [6]): +45%
- number of trials vs saline controls (cognitive flexibility; PCP, second session (drug-free)): +31%

SMILES: CN1[C@@H]2C[C@@H](OC(=O)[C@H](CO)c3ccccc3)C[C@H]1[C@@H]1O[C@@H]12 [scopolamine, (−)-scopolamine hydrobromide]
- d2 ratios vs vehicle-controls (recognition memory [1]; vehicle-scopolamine 0.2 mg/kg i.p.): significantly impaired compared to the vehicle-controls

SMILES: COc1cc2c(cc1OC)C(=O)C(CC1CCN(Cc3ccccc3)CC1)C2 (stereo not drawn) [donepezil, reference compound]
- preference for the novel object (exploration times) (recognition memory [2]): significant preference for the novel object

SMILES: Cc1ccc(Sc2ccccc2N2CCNCC2)c(C)c1 [vortioxetine]
- memory enhancement (attenuation of the scopolamine impairment) (recognition memory [1]; vortioxetine 10 mg/kg s.c. + scopolamine 0.2 mg/kg i.p., 3 hr delay): not associated with significant memory enhancement
- adverse reactions (recognition memory [1]; vortioxetine-scopolamine combination, three of the twelve rats, A/A session): adverse reactions during the A/A session (thigmotaxis, vocalizations, labored breathing)

SMILES: CN(C)CCCN1c2ccccc2CCc2ccccc21 [imipramine, reference compound]
- percent immobility time (immobility): significantly reduced immobility time

SMILES: C[C@@H]1[C@H](O)[C@@H](C)/C=C/C=C/C=C/C=C/C=C/C=C/C=C/[C@H](O[C@@H]2O[C@H](C)[C@@H](O)[C@H](N)[C@@H]2O)C[C@@H]2O[C@](O)(C[C@@H](O)C[C@@H](O)[C@H](O)CC[C@@H](O)C[C@@H](O)CC(=O)O[C@H]1C)C[C@H](O)[C@H]2C(=O)O [amphotericin B, reference compound]
- EC50 (rat red blood cells): 4.73 µM

SMILES: CCOc1ccccc1OC[C@@H]1CNCCO1 [S(−)-VLX]
- AUC0-last [3, 7]: 3594 ± 1641 ng·h/mL
- AUC(0-inf) [3, 7]: 3600 ng·h/mL
- AUCExtra [3, 7]: 0.20%
- AUMCExtra [3, 7]: 1.64%
- Cmax [3, 7]: 2973 ± 1201 ng/mL
- MRT0-inf [3, 7]: 67.2 min
- MRT0-last [3, 7]: 66 ± 6.36 min
- T1/2 [3, 7]: 58.2 ± 16.3 min
- Tlast [3, 7]: 8.00 h
- Tmax [3, 7]: 25.2 min
- Tmax ([3]; S(−)-VLX in plasma, 40 mg/kg PO, fasted rats, listed as S-Viloxazine): 25 ± 8.64 min
- enantiomer R(+) VLX in plasma ([3]; after S-Viloxazine 40 mg/kg PO, LLOQ 1.5 ng/mL): not detectable at any time points
- Closed arm entries (anxiety-like behavior; [8]): 7.13
- Closed arm returns (anxiety-like behavior; [8]): 2.13
- Head dips in open arms (anxiety-like behavior; [8]): 1.38
- Stretch-attend postures (anxiety-like behavior; [8]): 17.13
- Time in closed arms (anxiety-like behavior; [8]): 289.33 s
- Time in open arms (anxiety-like behavior; [8]): 1.08 s
- Total arm entries (anxiety-like behavior; [8]): 7.25
- % Time in open arms (anxiety-like behavior; [8]): 0.36 ± 0.36%
- Open Arm Entries (anxiety-like behavior; [8]): 0.13 ± 0.13
- Total distance travelled (anxiety-like behavior; [8]): 1334.42 ± 90.911 cm
- Closed arm entries (anxiety-like behavior; [9]): 7.88
- Closed arm returns (anxiety-like behavior; [9]): 2.75
- Head dips in open arms (anxiety-like behavior; [9]): 3.38
- Stretch-attend postures (anxiety-like behavior; [9]): 19.38
- Time in closed arms (anxiety-like behavior; [9]): 277.60 s
- Time in open arms (anxiety-like behavior; [9]): 6.11 s
- Total arm entries (anxiety-like behavior; [9]): 8.25
- % Time in open arms (anxiety-like behavior; [9]): 2.04 ± 1.60%
- Open Arm Entries (anxiety-like behavior; [9]): 0.38 ± 0.26
- Total distance travelled (anxiety-like behavior; [9]): 1334.22 ± 68.23 cm
- Closed arm entries (anxiety-like behavior; [10]): 6.00
- Closed arm returns (anxiety-like behavior; [10]): 3.50
- Head dips in open arms (anxiety-like behavior; [10]): 2.88
- Stretch-attend postures (anxiety-like behavior; [10]): 16.38
- Time in closed arms (anxiety-like behavior; [10]): 279.11 s
- Time in open arms (anxiety-like behavior; [10]): 6.43 s
- Total arm entries (anxiety-like behavior; [10]): 6.50
- % Time in open arms (anxiety-like behavior; [10]): 2.14 ± 1.52%
- Open Arm Entries (anxiety-like behavior; [10]): 0.50 ± 0.38
- Total distance travelled (anxiety-like behavior; [10]): 1350.11 ± 96.17 cm
- anxiolytic activity (anxiety-like behavior; S-VLX 15, 30, 60 mg/kg p.o.): None of the doses of S-Viloxazine were associated with anxiolytic activity
- total distance traveled vs vehicle (anxiety-like behavior; S-VLX 15, 30, and 60 mg/kg p.o.): travelled a significantly shorter distance
